Measurements reported in US20100035755A1, “METHOD OF CONTROLLING WEEDS IN A TURF GRASS BY USING SULFONYLUREA COMPOUNDS” (Moghu Research Center Ltd., priority 2008, published 2010).

How the values were obtained:
Cyperus amuricus = assay: Weed spectrum, greenhouse pot test; type: in vivo; conditions: two weeks after application
Description: (§1) To a rectangular plastic pot (surface area of 300 cm^2) in which sandy loam and mixed top soil (Boo-Nong Top Soil No. 3, for horticultural use) are filled in 1:1 ratio, eight different kinds of weed seeds including Poa annua and Digitaria sanguinalis as poaceae weed, Cyperus amuricus as cyperaceae weeds and Trifolium repens, Kummerowia striata, fleabane, Veronica officinalis and Portulaca oleracea as broadleaf weeds were sewn (50 to 100 seeds per each weed). These weeds are representative examples of the weeds which typically thrive in a turf grass field.
(§2) The pot was kept in a greenhouse which was maintained at 25˜30° C. for daytime and 15˜25° C. for nighttime, respectively, and irrigation was carried out regularly. Fourteen days after seeding, when the turf grass and the weeds reached approximately at three-leaf stage, the weed seeds were again sewn in separate two pots or “Test chemical” and “Control chemical” were applied in the same manner as the method described above. In this regard, when plants were cultivated for two weeks and then the chemical application was carried out, it is designated as “post-emergence” treatment. On the other than, when the seeding was carried right before the chemical application, it is designated as “pre-emergence” treatment. Preparation of a chemical solution, application method, etc. are the same as above described for evaluation of turf grass selectivity. Two weeks after the chemical application, efficacy of the chemicals for each type of the weeds was evaluated (visual evaluation) based on 0 to 100 scale (i.e., 0 indicates no efficacy and 100 indicates complete weed control).

Trifolium repens = assay: Weed spectrum, greenhouse pot test; type: in vivo; conditions: two weeks after application
Description: as §1, §2

Perennial rye grass = assay: Turf grass selectivity, greenhouse pot test; type: in vivo
Description: (§3) Turf mats of Zoysia grass, bentgrass, Kentucky bluegrass, or perennial rye grass known as cool season turfgrass or western grass were purchased and cut into a piece having 10 cm×20 cm size. Then, each piece was transplanted in a rectangular plastic pot (surface area of 300 cm^2) in which sandy loam and mixed top soil (Boo-Nong Top Soil No. 3, for horticultural use) are filled in 1:1 ratio. After the transplantation, the grasses were cut once a week to maintain the blade height at 0.5-1.0 cm and cultivated for one month in a green house of which temperature was kept at 25˜30° C. for daytime and 15˜25° C. for nighttime, respectively. Then, the ‘test chemical’ of the above Examples 1 and 2 or ‘control chemical’ was applied thereto in an amount of 400, 200, 100, 50, 25, 12, 6, 3 g ai/ha. As a “control chemical”, pyrazolsulfuron ethyl wettable agent (manufactured by Dongbu Fine Chemicals; herein after, referred to as ‘control chemical No. 1’) and flazasulfuron (manufactured by Dongbu HiTek; herein after, referred to as ‘control chemical No. 2’), both sulfonylurea herbicides for a turf grass, were used. Application was carried out by using a track sprayer (R&D Sprayer, USA) equipped with Teejet 8002 nozzle (Spraying Systems Co., USA), and the application amount was adjusted to 2,000 L/ha, which is a typical application amount for a golf course in Korea. Application solution was prepared by diluting the “test chemical” or the “control chemical” with tap water. […] The test was repeated three times in a random arrangement and the results are given in average value of each test (see Table 2 below).

Zoysia japonica = assay: Turf grass selectivity, greenhouse pot test; type: in vivo; conditions: Zoysia japonica
Description: as §3

Kentucky bluegrass = assay: Turf grass selectivity, greenhouse pot test; type: in vivo, Poa pratensis
Description: as §3

Bentgrass = assay: Turf grass selectivity, greenhouse pot test; type: in vivo, Agrostris palustris
Description: as §3

Dandelion = assay: Weed spectrum, greenhouse pot test; type: in vivo; conditions: two weeks after application

Cc1cc(C)nc(NC(=O)NS(=O)(=O)c2ccccc2C(O)C(C)F)n1 (stereo not shown) [Example 1]
2: phytotoxicity (visual assessment 0-10) (Kentucky bluegrass; 400 g ai/ha, 2 weeks) | phytotoxicity (visual assessment 0-10) (Bentgrass; 200 g ai/ha, 2 weeks) | phytotoxicity (visual assessment 0-10) (Bentgrass; 400 g ai/ha, 4 weeks)
40: efficacy (0-100 scale) (Trifolium repens; Post-emergence, 12 g ai/ha)
60: efficacy (0-100 scale) (Trifolium repens; Post-emergence, 50 g ai/ha) | efficacy (0-100 scale) (Trifolium repens; Post-emergence, 100 g ai/ha)
0: phytotoxicity (visual assessment 0-10) (Perennial rye grass; 3 g ai/ha, 2 weeks) | phytotoxicity (visual assessment 0-10) (Perennial rye grass; 3 g ai/ha, 4 weeks) | phytotoxicity (visual assessment 0-10) (Perennial rye grass; 6 g ai/ha, 2 weeks) | phytotoxicity (visual assessment 0-10) (Perennial rye grass; 6 g ai/ha, 4 weeks) | phytotoxicity (visual assessment 0-10) (Perennial rye grass; 12 g ai/ha, 2 weeks) | phytotoxicity (visual assessment 0-10) (Perennial rye grass; 12 g ai/ha, 4 weeks) | phytotoxicity (visual assessment 0-10) (Perennial rye grass; 25 g ai/ha, 2 weeks) | phytotoxicity (visual assessment 0-10) (Perennial rye grass; 25 g ai/ha, 4 weeks) | phytotoxicity (visual assessment 0-10) (Perennial rye grass; 50 g ai/ha, 2 weeks) | phytotoxicity (visual assessment 0-10) (Perennial rye grass; 50 g ai/ha, 4 weeks) | phytotoxicity (visual assessment 0-10) (Perennial rye grass; 100 g ai/ha, 2 weeks) | phytotoxicity (visual assessment 0-10) (Perennial rye grass; 100 g ai/ha, 4 weeks) | phytotoxicity (visual assessment 0-10) (Perennial rye grass; 200 g ai/ha, 2 weeks) | phytotoxicity (visual assessment 0-10) (Perennial rye grass; 200 g ai/ha, 4 weeks) | phytotoxicity (visual assessment 0-10) (Perennial rye grass; 400 g ai/ha, 4 weeks) | phytotoxicity (visual assessment 0-10) (Zoysia japonica; 3 g ai/ha, 2 weeks) | phytotoxicity (visual assessment 0-10) (Zoysia japonica; 3 g ai/ha, 4 weeks) | phytotoxicity (visual assessment 0-10) (Zoysia japonica; 6 g ai/ha, 2 weeks) | phytotoxicity (visual assessment 0-10) (Zoysia japonica; 6 g ai/ha, 4 weeks) | phytotoxicity (visual assessment 0-10) (Zoysia japonica; 12 g ai/ha, 2 weeks) | phytotoxicity (visual assessment 0-10) (Zoysia japonica; 12 g ai/ha, 4 weeks) | phytotoxicity (visual assessment 0-10) (Zoysia japonica; 25 g ai/ha, 2 weeks) | phytotoxicity (visual assessment 0-10) (Zoysia japonica; 25 g ai/ha, 4 weeks) | phytotoxicity (visual assessment 0-10) (Zoysia japonica; 50 g ai/ha, 2 weeks) | phytotoxicity (visual assessment 0-10) (Zoysia japonica; 50 g ai/ha, 4 weeks) | phytotoxicity (visual assessment 0-10) (Zoysia japonica; 100 g ai/ha, 2 weeks) | phytotoxicity (visual assessment 0-10) (Zoysia japonica; 100 g ai/ha, 4 weeks) | phytotoxicity (visual assessment 0-10) (Zoysia japonica; 200 g ai/ha, 2 weeks) | phytotoxicity (visual assessment 0-10) (Zoysia japonica; 200 g ai/ha, 4 weeks) | phytotoxicity (visual assessment 0-10) (Zoysia japonica; 400 g ai/ha, 2 weeks) | phytotoxicity (visual assessment 0-10) (Zoysia japonica; 400 g ai/ha, 4 weeks) | phytotoxicity (visual assessment 0-10) (Kentucky bluegrass; 3 g ai/ha, 2 weeks) | phytotoxicity (visual assessment 0-10) (Kentucky bluegrass; 3 g ai/ha, 4 weeks) | phytotoxicity (visual assessment 0-10) (Kentucky bluegrass; 6 g ai/ha, 2 weeks) | phytotoxicity (visual assessment 0-10) (Kentucky bluegrass; 6 g ai/ha, 4 weeks) | phytotoxicity (visual assessment 0-10) (Kentucky bluegrass; 12 g ai/ha, 2 weeks) | phytotoxicity (visual assessment 0-10) (Kentucky bluegrass; 12 g ai/ha, 4 weeks) | phytotoxicity (visual assessment 0-10) (Kentucky bluegrass; 25 g ai/ha, 2 weeks) | phytotoxicity (visual assessment 0-10) (Kentucky bluegrass; 25 g ai/ha, 4 weeks) | phytotoxicity (visual assessment 0-10) (Kentucky bluegrass; 50 g ai/ha, 2 weeks) | phytotoxicity (visual assessment 0-10) (Kentucky bluegrass; 50 g ai/ha, 4 weeks) | phytotoxicity (visual assessment 0-10) (Kentucky bluegrass; 100 g ai/ha, 2 weeks) | phytotoxicity (visual assessment 0-10) (Kentucky bluegrass; 100 g ai/ha, 4 weeks) | phytotoxicity (visual assessment 0-10) (Kentucky bluegrass; 200 g ai/ha, 4 weeks) | phytotoxicity (visual assessment 0-10) (Bentgrass; 3 g ai/ha, 2 weeks) | phytotoxicity (visual assessment 0-10) (Bentgrass; 3 g ai/ha, 4 weeks) | phytotoxicity (visual assessment 0-10) (Bentgrass; 6 g ai/ha, 2 weeks) | phytotoxicity (visual assessment 0-10) (Bentgrass; 6 g ai/ha, 4 weeks) | phytotoxicity (visual assessment 0-10) (Bentgrass; 12 g ai/ha, 2 weeks) | phytotoxicity (visual assessment 0-10) (Bentgrass; 12 g ai/ha, 4 weeks) | phytotoxicity (visual assessment 0-10) (Bentgrass; 25 g ai/ha, 2 weeks) | phytotoxicity (visual assessment 0-10) (Bentgrass; 25 g ai/ha, 4 weeks) | phytotoxicity (visual assessment 0-10) (Bentgrass; 50 g ai/ha, 2 weeks) | phytotoxicity (visual assessment 0-10) (Bentgrass; 50 g ai/ha, 4 weeks) | phytotoxicity (visual assessment 0-10) (Bentgrass; 100 g ai/ha, 4 weeks)
30: efficacy (0-100 scale) (Trifolium repens; Pre-emergence, 12 g ai/ha)
50: efficacy (0-100 scale) (Trifolium repens; Post-emergence, 25 g ai/ha) | efficacy (0-100 scale) (Trifolium repens; Pre-emergence, 25 g ai/ha)
95: efficacy (0-100 scale) (Cyperus amuricus; Post-emergence, 25 g ai/ha) | efficacy (0-100 scale) (Cyperus amuricus; Pre-emergence, 25 g ai/ha)
100: efficacy (0-100 scale) (Cyperus amuricus; Post-emergence, 50 g ai/ha) | efficacy (0-100 scale) (Cyperus amuricus; Post-emergence, 100 g ai/ha) | efficacy (0-100 scale) (Cyperus amuricus; Pre-emergence, 50 g ai/ha) | efficacy (0-100 scale) (Cyperus amuricus; Pre-emergence, 100 g ai/ha) | efficacy (0-100 scale) (Dandelion; Post-emergence, 50 g ai/ha) | efficacy (0-100 scale) (Dandelion; Post-emergence, 100 g ai/ha) | efficacy (0-100 scale) (Dandelion; Pre-emergence, 50 g ai/ha) | efficacy (0-100 scale) (Dandelion; Pre-emergence, 100 g ai/ha)
3: phytotoxicity (visual assessment 0-10) (Bentgrass; 400 g ai/ha, 2 weeks)
1: phytotoxicity (visual assessment 0-10) (Perennial rye grass; 400 g ai/ha, 2 weeks) | phytotoxicity (visual assessment 0-10) (Kentucky bluegrass; 200 g ai/ha, 2 weeks) | phytotoxicity (visual assessment 0-10) (Kentucky bluegrass; 400 g ai/ha, 4 weeks) | phytotoxicity (visual assessment 0-10) (Bentgrass; 100 g ai/ha, 2 weeks) | phytotoxicity (visual assessment 0-10) (Bentgrass; 200 g ai/ha, 4 weeks)
70: efficacy (0-100 scale) (Trifolium repens; Pre-emergence, 50 g ai/ha) | efficacy (0-100 scale) (Trifolium repens; Pre-emergence, 100 g ai/ha)
90: efficacy (0-100 scale) (Cyperus amuricus; Post-emergence, 12 g ai/ha) | efficacy (0-100 scale) (Cyperus amuricus; Pre-emergence, 12 g ai/ha) | efficacy (0-100 scale) (Dandelion; Post-emergence, 12 g ai/ha) | efficacy (0-100 scale) (Dandelion; Post-emergence, 25 g ai/ha) | efficacy (0-100 scale) (Dandelion; Pre-emergence, 12 g ai/ha) | efficacy (0-100 scale) (Dandelion; Pre-emergence, 25 g ai/ha)
